Data on four molecules can be found in US20080254017A1, “Methods and compositions for treating symptomes of diseases related to imbalance of essential fatty acids” (priority 2006, published 2008).

Where two headings read alike, the source gives them in different places.

For series [1], the system named is subjects with autistic spectrum disorder. The series is classed as in vivo. The text has this: The systemic nature of Autistic Spectrum Disorder (ASD) and the pervasive developmental delay (PDD) that may accompany it has led the inventor of the invention to view the complexity of these presentations by addressing them from a cell membrane perspective. Autistic spectrum disorder is a complex neurodevelopmental disorder, which has been investigated under an open clinical study rather than randomized, placebo, controlled and double blinded studies due to the constellation of symptoms in autistic spectrum disorder and multiple variables in regard to the oral and IV intervention. Each subject served as his or her own control for several reasons, 1) control pediatric subjects are difficult to obtain due to the use of intravenous therapy, 2) compliance in regard to a restricted carbohydrate diet and oral intake of supplements is limited in controls, and 3) matching two subjects with the same diagnosis, gender, age, development, metabolism and presentation is unrealistic in regard to autism and PDD. Presently there are no biological markers that exist to identify autistic spectrum disorder in addition to speculation that multiple, variable susceptibility genes, epigenetic effects, and environmental factors complicate the disorder we term autism.
The case studies represented below present the result of the treatment regimen on 300 subjects studied. Phospholipid re-modeling of these subjects were stimulated by supplying oral or IV phospholipids, principally PC, as well as balanced essential fatty acids and catalysts via nutritional and phamaneutical interventions.
A butterfly catheter with a 23-gauge needle was inserted into a vein of the antecubital region of one of the subjects' arms. A syringe containing the PC (phosphatidylcholine) composition in about 5 to about 10 cc volume was connected to the catheter by a flexible tube. A volume of blood equal to the total volume of the PC composition was drawn into the syringe and the syringe was gently agitated to mix the blood and PC composition. The blood/PC composition mixture was then infused (or “pushed”) as a lipid exchange into the subject over a period of two to three minutes.
A butterfly catheter with a 23-gauge needle was inserted into a vein of the antecubital region of one of the subjects' arms. The PC composition was infused first followed by a pre-prepared syringe containing about 2 mg (0.2 cc) to about 5 mg (0.5 cc) of Leucovorin over the period of 2-3 minutes.
A butterfly catheter with a 23-gauge needle was inserted into a vein of the antecubital region of one of the subjects' arms. The PC and Leucovorin compositions were infused first followed by a pre-prepared syringe containing about 1.5 to 6 cc of glutathione generally pre-mixed with an equal portion of sterile water (not saline). The composition containing glutathione was followed the IV PC with a pre-prepared syringe of glutathione using the same needle. This procedure avoids re-sticking the patient by infusing first the PC, then the Leucovorin and then the glutathione using the same butterfly catheter with a flexible tube infused (or “pushed”) into the subject over a period of two to five minutes.

Series [2] concerns mouse model of Bulbar ALS. To be noted: oral administration; cited from earlier work.
For series [3] the following is noted: L-Glutathione capsules, stomach acid; cited from earlier work.
For series [4] the following is noted: cited from earlier work.
The conditions of series [5]: IV bolus doses of 7 grams, 14 grams and 21 grams; cited from earlier work.

As for `O=C(O)[C@@H](S)[C@@H](S)C(=O)O` [DMSA, meso-2,3-dimercaptosuccinic acid], the adverse outcome in series [1] (Case Study Seven, 13 months of oral dosing by another physician) is reported as “increased left side weakness”.
Regarding `CCCC(=O)[O-].[Na+]` [sodium butyrate], in series [2], the “acetylation of nuclear histone in neural tissues” value is reported as “increased acetylation of nuclear histone in neural tissues” and the neurological phenotypes result is given as “successfully ameliorated neurological phenotypes”.
For `N[C@@H](CCC(=O)N[C@@H](CS)C(=O)NCC(=O)O)C(=O)O` [Glutathione, N—(N-L-gamma-glutamyl-L-cysteinyl) glycine], in series [3], the “stability when taken orally” value was “very unstable and is destroyed by the stomach acid before it can be absorbed”.
Turning to Phosphatidylcholine, the clinical response result in series [1] (Case Study Five, 2 grams then 3 grams on consecutive weeks dripped over 3 hours) was “increased awareness/communication”; in series [1] (Case Study Seven, IV 500 mg two to three times weekly, after 6 weeks), “dramatic improvement in response to others and the world around them”; in series [1] (Case Study Seven, IV lipid exchange 250 mg followed by 0.3 cc leucovorin and 1200 mg GSH, once weekly), “positive responsive”; in series [1] (Case Study Seven, bolus dosing) it was “increased language and awareness”; in series [1] (Case Study Six, IV 500 mg twice weekly, after 6 weeks) it was “improvement in fatigue, stable mood, return of focus, improvement in memory, clearance of orange color on palms/soles, less headaches, improved learning”; in series [1] (Case Study Six, IV lipid exchange 250 mg once weekly with supplementation and diet), “responsive”. In addition, the clinical response entry in series [1] (Case Study Six, bolus 1.5 grams in D5W dripped over 2 hours followed by glutathione) was “improved cognition, increased circulation, improved eye contact and more demonstrative, loving behavior”. In addition, the tolerability result in series [1] (Case Study Six, bolus 3 grams dripped over 4 hours) is listed as “well tolerated”. The oral absorption entry in series [4] (taken orally with meals) is recorded as “up to 90 % per 24 hrs”. The “time over which blood levels peak” value in series [4] (taken orally) was 8 to 12 h. For the same molecule, in series [5], the side effects entry is “no side effects were observed”.
